Source: paper PMC4503722, “Novel Phenotypic Outcomes Identified for a Public Collection of Approved Drugs from a Publicly Accessible Panel of Assays” (PLoS ONE, 2015)

test system: endothelial tube formation in co-cultures of ECFCs and ADSCs treated with VEGF; experiment: cells; format: cell-based, human; details: not given

| SMILES | VEGF_ADSC\ECFC Angio CD31 TubeArea IC50/EC50 |
| --- | --- |
| Cc1cc(C2CCCCC2)n(O)c(=O)c1.NCCO [NCGC00017112-10] | > 10 µM |

test system: nuclear β-catenin in C2C12 cells; experiment: cells; format: cell-based; details: assay number 5; concentration response

| SMILES | WntCondMedia_bCatenin C2C12 IC50/EC50 |
| --- | --- |
| C#C[C@]1(O)CC[C@H]2[C@@H]3CCc4cc(OC5CCCC5)ccc4[C@H]3CC[C@@]21C [NCGC00166146-02] | > 20 µM |
| Cc1cc2c(C(C)C)c(O)c(O)c(C=O)c2c(O)c1-c1c(C)cc2c(C(C)C)c(O)c(O)c(C=O)c2c1O [NCGC00016423-15] | 3.4859 µM |
| Cc1cc(C2CCCCC2)n(O)c(=O)c1.NCCO [NCGC00017112-10] | > 20 µM |

test system: alkaline phosphatase (ALP) activity in C2C12 cells; experiment: not given; format: cell-based; details: assay number 6; concentration response

| SMILES | WntCondMedia_Alk Phos C2C12 IC50/EC50 |
| --- | --- |
| C#C[C@]1(O)CC[C@H]2[C@@H]3CCc4cc(OC5CCCC5)ccc4[C@H]3CC[C@@]21C [NCGC00166146-02] | > 20 µM |
| Cc1cc2c(C(C)C)c(O)c(O)c(C=O)c2c(O)c1-c1c(C)cc2c(C(C)C)c(O)c(O)c(C=O)c2c1O [NCGC00016423-15] | > 20 µM |
| Cc1cc(C2CCCCC2)n(O)c(=O)c1.NCCO [NCGC00017112-10] | 1.0476 µM |

test system: NCI-H716 cells; experiment: cells; format: cell-based, Human; details: assay number 12

| SMILES | hNCI-H716 GLP1 Secretion IC50/EC50 |
| --- | --- |
| C#C[C@]1(O)CC[C@H]2[C@@H]3CCc4cc(OC5CCCC5)ccc4[C@H]3CC[C@@]21C [NCGC00166146-02] | 17.5795 µM |
| Cc1cc2c(C(C)C)c(O)c(O)c(C=O)c2c(O)c1-c1c(C)cc2c(C(C)C)c(O)c(O)c(C=O)c2c1O [NCGC00016423-15] | 23.4306 µM |

test system: STC-1 cell line; experiment: not given; format: cell-based, mouse; details: assay number 13

| SMILES | mSTC-1 GLP1 Secretion IC50/EC50 |
| --- | --- |
| C#C[C@]1(O)CC[C@H]2[C@@H]3CCc4cc(OC5CCCC5)ccc4[C@H]3CC[C@@]21C [NCGC00166146-02] | > 40 µM |
| Cc1cc2c(C(C)C)c(O)c(O)c(C=O)c2c(O)c1-c1c(C)cc2c(C(C)C)c(O)c(O)c(C=O)c2c1O [NCGC00016423-15] | > 40 µM |

test system: HeLa cells; experiment: cells; format: cell-based; details: assay number 14; 2N

| SMILES | Hela CellCycMod PI 2N IC50/EC50 |
| --- | --- |
| Cc1cc2c(C(C)C)c(O)c(O)c(C=O)c2c(O)c1-c1c(C)cc2c(C(C)C)c(O)c(O)c(C=O)c2c1O [NCGC00016423-15] | > 10 µM |
| Cc1cc(C2CCCCC2)n(O)c(=O)c1.NCCO [NCGC00017112-10] | > 10 µM |

same assay, conditions: assay number 15; S phase

| SMILES | Hela CellCycMod PI S Phase IC50/EC50 |
| --- | --- |
| Cc1cc2c(C(C)C)c(O)c(O)c(C=O)c2c(O)c1-c1c(C)cc2c(C(C)C)c(O)c(O)c(C=O)c2c1O [NCGC00016423-15] | > 10 µM |

same assay, conditions: assay number 16; 4N

| SMILES | Hela CellCycMod PI 4N IC50/EC50 |
| --- | --- |
| Cc1cc2c(C(C)C)c(O)c(O)c(C=O)c2c(O)c1-c1c(C)cc2c(C(C)C)c(O)c(O)c(C=O)c2c1O [NCGC00016423-15] | > 10 µM |
| Cc1cc(C2CCCCC2)n(O)c(=O)c1.NCCO [NCGC00017112-10] | > 10 µM |

same assay, conditions: assay number 17; MI

| SMILES | Hela CellCycMod PI MI IC50/EC50 |
| --- | --- |
| Cc1cc2c(C(C)C)c(O)c(O)c(C=O)c2c(O)c1-c1c(C)cc2c(C(C)C)c(O)c(O)c(C=O)c2c1O [NCGC00016423-15] | > 10 µM |
| Cc1cc(C2CCCCC2)n(O)c(=O)c1.NCCO [NCGC00017112-10] | > 10 µM |

same assay, conditions: assay number 18; cell number

| SMILES | Hela CellCycMod PI Cell Number IC50/EC50 |
| --- | --- |
| Cc1cc2c(C(C)C)c(O)c(O)c(C=O)c2c(O)c1-c1c(C)cc2c(C(C)C)c(O)c(O)c(C=O)c2c1O [NCGC00016423-15] | 3.7083 µM |
| Cc1cc(C2CCCCC2)n(O)c(=O)c1.NCCO [NCGC00017112-10] | 0.5693 µM |

test system: DLD-1; experiment: cells; format: cell-based; details: assay number 23; basal

| SMILES | Basal_Viability ATP DLD-1 IC50/EC50 |
| --- | --- |
| Cc1cc2c(C(C)C)c(O)c(O)c(C=O)c2c(O)c1-c1c(C)cc2c(C(C)C)c(O)c(O)c(C=O)c2c1O [NCGC00016423-15] | 0.8345 µM |
| Cc1cc(C2CCCCC2)n(O)c(=O)c1.NCCO [NCGC00017112-10] | 0.316 µM |

test system: SW480; experiment: cells; format: cell-based; details: assay number 24; basal

| SMILES | Basal_Viability ATP SW480 IC50/EC50 |
| --- | --- |
| Cc1cc2c(C(C)C)c(O)c(O)c(C=O)c2c(O)c1-c1c(C)cc2c(C(C)C)c(O)c(O)c(C=O)c2c1O [NCGC00016423-15] | 0.9563 µM |
| Cc1cc(C2CCCCC2)n(O)c(=O)c1.NCCO [NCGC00017112-10] | 0.469 µM |

test system: HCT116; experiment: cells; format: cell-based; details: assay number 25; basal

| SMILES | Basal_Viability ATP HCT116 IC50/EC50 |
| --- | --- |
| Cc1cc2c(C(C)C)c(O)c(O)c(C=O)c2c(O)c1-c1c(C)cc2c(C(C)C)c(O)c(O)c(C=O)c2c1O [NCGC00016423-15] | 0.7844 µM |
| Cc1cc(C2CCCCC2)n(O)c(=O)c1.NCCO [NCGC00017112-10] | 0.6557 µM |

test system: HCT116 cells treated with a GSK3β inhibitor; experiment: cells; format: cell-based; details: assay number 26; GSK3b inhibitor pretreated

| SMILES | GSK3b inh pretreated_Viability ATP HCT116 IC50/EC50 |
| --- | --- |
| Cc1cc(C2CCCCC2)n(O)c(=O)c1.NCCO [NCGC00017112-10] | 0.3898 µM |

test system: Colo320; experiment: cells; format: cell-based; details: assay number 27; basal

| SMILES | Basal_Viability ATP Colo 320 IC50/EC50 |
| --- | --- |
| Cc1cc2c(C(C)C)c(O)c(O)c(C=O)c2c(O)c1-c1c(C)cc2c(C(C)C)c(O)c(O)c(C=O)c2c1O [NCGC00016423-15] | 1.3794 µM |
| Cc1cc(C2CCCCC2)n(O)c(=O)c1.NCCO [NCGC00017112-10] | 0.2084 µM |

test system: HT-29; experiment: cells; format: cell-based; details: assay number 28; basal

| SMILES | Basal_Viability ATP HT-29 IC50/EC50 |
| --- | --- |
| Cc1cc2c(C(C)C)c(O)c(O)c(C=O)c2c(O)c1-c1c(C)cc2c(C(C)C)c(O)c(O)c(C=O)c2c1O [NCGC00016423-15] | 1.4237 µM |
| Cc1cc(C2CCCCC2)n(O)c(=O)c1.NCCO [NCGC00017112-10] | 7.035 µM |

test system: RKO; experiment: cells; format: cell-based; details: assay number 29; basal

| SMILES | Basal_Viability ATP RKO IC50/EC50 |
| --- | --- |
| Cc1cc2c(C(C)C)c(O)c(O)c(C=O)c2c(O)c1-c1c(C)cc2c(C(C)C)c(O)c(O)c(C=O)c2c1O [NCGC00016423-15] | 0.9156 µM |
| Cc1cc(C2CCCCC2)n(O)c(=O)c1.NCCO [NCGC00017112-10] | 0.2329 µM |

test system: SNU-C1; experiment: cells; format: cell-based; details: assay number 30; basal

| SMILES | Basal_Viability ATP SNU-C1 IC50/EC50 |
| --- | --- |
| Cc1cc2c(C(C)C)c(O)c(O)c(C=O)c2c(O)c1-c1c(C)cc2c(C(C)C)c(O)c(O)c(C=O)c2c1O [NCGC00016423-15] | 0.3538 µM |
| Cc1cc(C2CCCCC2)n(O)c(=O)c1.NCCO [NCGC00017112-10] | > 20 µM |

molecular target: T1, hp70S6K1 (RPS6KB1) (Homo sapiens, UniProt P23443); experiment: Cerep LANCE kinase assay hp70S6K1 (S1 assay 31); format: biochemical; details: assay number 31
T1 construct: purchased Cerep (LANCE kinase assay platform, contract assay)
T1 sequence (P23443 whole entry): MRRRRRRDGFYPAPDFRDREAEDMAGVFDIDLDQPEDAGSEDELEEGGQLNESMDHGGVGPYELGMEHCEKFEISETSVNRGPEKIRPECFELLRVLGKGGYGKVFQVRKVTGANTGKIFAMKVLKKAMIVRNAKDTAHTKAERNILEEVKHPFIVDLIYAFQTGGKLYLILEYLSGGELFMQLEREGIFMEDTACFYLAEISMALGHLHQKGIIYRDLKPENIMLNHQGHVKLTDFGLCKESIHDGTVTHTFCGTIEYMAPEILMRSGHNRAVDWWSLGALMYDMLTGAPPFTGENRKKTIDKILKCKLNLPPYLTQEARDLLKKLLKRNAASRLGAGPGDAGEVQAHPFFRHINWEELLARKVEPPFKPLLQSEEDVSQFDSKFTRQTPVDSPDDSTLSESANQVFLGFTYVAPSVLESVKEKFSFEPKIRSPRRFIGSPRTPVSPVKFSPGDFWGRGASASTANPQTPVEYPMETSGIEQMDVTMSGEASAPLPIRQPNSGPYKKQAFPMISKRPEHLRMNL

| SMILES | hp70S6K1 LANCE IC50/EC50 |
| --- | --- |
| Cc1cc2c(C(C)C)c(O)c(O)c(C=O)c2c(O)c1-c1c(C)cc2c(C(C)C)c(O)c(O)c(C=O)c2c1O [NCGC00016423-15] | > 20 µM |
| Cc1cc(C2CCCCC2)n(O)c(=O)c1.NCCO [NCGC00017112-10] | > 20 µM |

molecular target: T2, hKDR (Homo sapiens, UniProt P35968); experiment: Cerep LANCE kinase assay hKDR (S1 assay 32); format: biochemical; details: assay number 32
T2 construct: purchased Cerep (LANCE kinase assay platform, contract assay)
T2 sequence (P35968 20-1356): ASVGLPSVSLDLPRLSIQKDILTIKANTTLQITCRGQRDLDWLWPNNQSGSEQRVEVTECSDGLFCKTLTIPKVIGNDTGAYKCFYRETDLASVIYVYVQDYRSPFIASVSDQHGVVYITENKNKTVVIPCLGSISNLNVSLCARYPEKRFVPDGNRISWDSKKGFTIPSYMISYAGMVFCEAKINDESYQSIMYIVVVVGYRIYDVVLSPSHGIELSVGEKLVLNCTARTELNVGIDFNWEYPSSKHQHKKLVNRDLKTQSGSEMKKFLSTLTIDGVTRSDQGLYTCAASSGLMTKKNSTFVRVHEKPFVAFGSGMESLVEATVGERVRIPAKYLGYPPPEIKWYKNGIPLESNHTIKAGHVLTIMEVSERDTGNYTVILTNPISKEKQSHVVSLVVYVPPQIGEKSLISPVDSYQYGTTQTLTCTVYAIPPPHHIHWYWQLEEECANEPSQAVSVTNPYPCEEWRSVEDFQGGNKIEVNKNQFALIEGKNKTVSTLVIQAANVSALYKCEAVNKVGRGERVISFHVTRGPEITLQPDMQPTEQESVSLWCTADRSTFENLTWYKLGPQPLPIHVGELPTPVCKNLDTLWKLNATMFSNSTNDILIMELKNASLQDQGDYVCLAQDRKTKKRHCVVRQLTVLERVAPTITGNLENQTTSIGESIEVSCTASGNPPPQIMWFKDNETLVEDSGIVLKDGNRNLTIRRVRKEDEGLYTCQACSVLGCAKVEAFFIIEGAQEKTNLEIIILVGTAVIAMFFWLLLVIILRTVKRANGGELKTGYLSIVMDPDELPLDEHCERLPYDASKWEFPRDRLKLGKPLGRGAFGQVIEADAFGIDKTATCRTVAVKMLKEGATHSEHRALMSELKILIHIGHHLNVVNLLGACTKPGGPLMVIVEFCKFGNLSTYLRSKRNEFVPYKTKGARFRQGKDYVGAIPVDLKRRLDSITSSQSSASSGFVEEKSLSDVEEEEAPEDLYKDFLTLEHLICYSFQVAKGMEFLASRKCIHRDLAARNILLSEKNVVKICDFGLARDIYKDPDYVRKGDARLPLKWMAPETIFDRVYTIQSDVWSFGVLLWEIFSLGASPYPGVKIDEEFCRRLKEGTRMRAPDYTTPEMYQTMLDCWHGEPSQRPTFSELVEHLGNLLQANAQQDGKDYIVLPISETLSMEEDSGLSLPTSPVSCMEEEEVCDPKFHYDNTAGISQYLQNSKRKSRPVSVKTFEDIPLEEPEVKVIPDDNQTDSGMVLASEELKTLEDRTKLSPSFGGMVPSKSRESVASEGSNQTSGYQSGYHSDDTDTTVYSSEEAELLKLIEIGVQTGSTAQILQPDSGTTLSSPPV

| SMILES | hKDR LANCE IC50/EC50 |
| --- | --- |
| Cc1cc2c(C(C)C)c(O)c(O)c(C=O)c2c(O)c1-c1c(C)cc2c(C(C)C)c(O)c(O)c(C=O)c2c1O [NCGC00016423-15] | > 20 µM |
| Cc1cc(C2CCCCC2)n(O)c(=O)c1.NCCO [NCGC00017112-10] | > 20 µM |

molecular target: T3, hJAK2 (Homo sapiens, UniProt O60674); experiment: Cerep LANCE kinase assay hJAK2 (S1 assay 33); format: biochemical; details: assay number 33
T3 construct: purchased Cerep (LANCE kinase assay platform, contract assay)
T3 sequence (O60674 whole entry): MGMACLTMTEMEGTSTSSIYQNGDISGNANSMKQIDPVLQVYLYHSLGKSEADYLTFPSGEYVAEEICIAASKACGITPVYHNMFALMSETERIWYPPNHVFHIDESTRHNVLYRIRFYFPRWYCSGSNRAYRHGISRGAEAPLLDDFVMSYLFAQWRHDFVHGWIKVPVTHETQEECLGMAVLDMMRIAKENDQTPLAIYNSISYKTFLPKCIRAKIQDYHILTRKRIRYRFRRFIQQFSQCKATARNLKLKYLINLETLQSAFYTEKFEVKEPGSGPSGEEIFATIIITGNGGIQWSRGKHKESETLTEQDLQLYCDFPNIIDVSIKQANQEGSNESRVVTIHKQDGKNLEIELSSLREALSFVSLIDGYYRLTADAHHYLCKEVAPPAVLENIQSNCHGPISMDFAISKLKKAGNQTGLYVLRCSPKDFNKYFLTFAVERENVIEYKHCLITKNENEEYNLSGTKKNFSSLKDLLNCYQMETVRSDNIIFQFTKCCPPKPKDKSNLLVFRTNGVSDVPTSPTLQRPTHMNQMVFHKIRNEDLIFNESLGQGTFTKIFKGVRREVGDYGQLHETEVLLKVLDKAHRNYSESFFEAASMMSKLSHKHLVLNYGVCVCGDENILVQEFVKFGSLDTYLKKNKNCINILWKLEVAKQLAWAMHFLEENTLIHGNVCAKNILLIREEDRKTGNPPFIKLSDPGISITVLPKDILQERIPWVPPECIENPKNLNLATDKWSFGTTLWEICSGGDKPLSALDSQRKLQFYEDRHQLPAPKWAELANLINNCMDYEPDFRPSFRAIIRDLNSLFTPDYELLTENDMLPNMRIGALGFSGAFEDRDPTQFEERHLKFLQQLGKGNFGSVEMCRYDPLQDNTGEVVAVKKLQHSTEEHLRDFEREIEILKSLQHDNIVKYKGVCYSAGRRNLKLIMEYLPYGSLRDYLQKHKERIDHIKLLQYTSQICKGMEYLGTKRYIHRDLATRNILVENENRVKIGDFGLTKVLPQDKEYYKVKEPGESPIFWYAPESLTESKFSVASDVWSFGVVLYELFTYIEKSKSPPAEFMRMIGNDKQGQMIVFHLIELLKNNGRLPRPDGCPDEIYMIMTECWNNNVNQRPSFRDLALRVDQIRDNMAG

| SMILES | hJAK2 LANCE IC50/EC50 |
| --- | --- |
| Cc1cc2c(C(C)C)c(O)c(O)c(C=O)c2c(O)c1-c1c(C)cc2c(C(C)C)c(O)c(O)c(C=O)c2c1O [NCGC00016423-15] | > 20 µM |
| Cc1cc(C2CCCCC2)n(O)c(=O)c1.NCCO [NCGC00017112-10] | > 20 µM |

molecular target: T4, hGSK3b (Homo sapiens, UniProt P49841); experiment: Cerep LANCE kinase assay hGSK3b (S1 assay 34); format: biochemical; details: assay number 34
T4 construct: purchased Cerep (LANCE kinase assay platform, contract assay)
T4 sequence (P49841 whole entry): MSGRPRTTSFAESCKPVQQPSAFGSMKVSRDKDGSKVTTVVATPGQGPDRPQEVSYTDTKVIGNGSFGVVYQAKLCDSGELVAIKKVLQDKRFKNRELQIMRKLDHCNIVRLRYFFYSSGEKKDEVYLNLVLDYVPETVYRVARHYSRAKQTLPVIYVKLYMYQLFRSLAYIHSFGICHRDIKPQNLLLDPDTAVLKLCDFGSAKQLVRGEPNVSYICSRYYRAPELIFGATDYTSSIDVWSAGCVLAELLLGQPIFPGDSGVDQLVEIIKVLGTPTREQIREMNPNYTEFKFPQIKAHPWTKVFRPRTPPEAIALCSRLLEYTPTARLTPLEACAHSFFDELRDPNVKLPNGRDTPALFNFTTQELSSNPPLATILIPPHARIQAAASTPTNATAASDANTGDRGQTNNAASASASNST

| SMILES | hGSK3b LANCE IC50/EC50 |
| --- | --- |
| Cc1cc2c(C(C)C)c(O)c(O)c(C=O)c2c(O)c1-c1c(C)cc2c(C(C)C)c(O)c(O)c(C=O)c2c1O [NCGC00016423-15] | > 20 µM |
| Cc1cc(C2CCCCC2)n(O)c(=O)c1.NCCO [NCGC00017112-10] | > 20 µM |

molecular target: T5, hFLT3 (Homo sapiens, UniProt P36888); experiment: Cerep LANCE kinase assay hFLT3 (S1 assay 35); format: biochemical; details: assay number 35
T5 construct: purchased Cerep (LANCE kinase assay platform, contract assay)
T5 sequence (P36888 27-993): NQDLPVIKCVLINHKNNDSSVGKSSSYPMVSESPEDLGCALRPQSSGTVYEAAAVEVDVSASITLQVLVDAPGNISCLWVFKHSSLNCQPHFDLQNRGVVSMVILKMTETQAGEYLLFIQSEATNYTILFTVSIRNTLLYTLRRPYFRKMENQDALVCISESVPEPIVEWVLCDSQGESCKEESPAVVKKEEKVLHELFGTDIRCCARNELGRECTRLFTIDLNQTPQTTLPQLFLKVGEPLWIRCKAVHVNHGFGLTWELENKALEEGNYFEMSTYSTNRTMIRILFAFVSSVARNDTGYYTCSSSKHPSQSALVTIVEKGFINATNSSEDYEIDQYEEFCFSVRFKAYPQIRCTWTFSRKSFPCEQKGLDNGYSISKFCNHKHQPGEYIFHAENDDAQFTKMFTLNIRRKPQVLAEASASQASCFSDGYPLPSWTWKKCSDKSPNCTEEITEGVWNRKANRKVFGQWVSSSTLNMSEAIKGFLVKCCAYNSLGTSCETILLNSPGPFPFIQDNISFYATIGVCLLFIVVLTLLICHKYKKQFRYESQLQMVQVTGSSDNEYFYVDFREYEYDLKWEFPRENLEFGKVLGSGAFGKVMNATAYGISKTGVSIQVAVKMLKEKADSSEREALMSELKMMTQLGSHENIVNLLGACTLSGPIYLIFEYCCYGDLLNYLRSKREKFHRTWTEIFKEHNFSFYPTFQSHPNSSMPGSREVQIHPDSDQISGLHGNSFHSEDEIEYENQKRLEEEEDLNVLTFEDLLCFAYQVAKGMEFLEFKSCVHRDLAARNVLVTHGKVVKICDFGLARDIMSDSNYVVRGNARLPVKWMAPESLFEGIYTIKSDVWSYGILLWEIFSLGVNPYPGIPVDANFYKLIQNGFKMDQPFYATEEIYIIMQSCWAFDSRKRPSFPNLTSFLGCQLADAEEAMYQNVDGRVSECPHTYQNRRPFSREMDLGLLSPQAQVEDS

| SMILES | hFLT3 LANCE IC50/EC50 |
| --- | --- |
| Cc1cc2c(C(C)C)c(O)c(O)c(C=O)c2c(O)c1-c1c(C)cc2c(C(C)C)c(O)c(O)c(C=O)c2c1O [NCGC00016423-15] | > 20 µM |
| Cc1cc(C2CCCCC2)n(O)c(=O)c1.NCCO [NCGC00017112-10] | > 20 µM |

test system: ECFC/ADSC co-culture cell nuclei number; experiment: not given; details: not given

| SMILES | VEGF_ADSC\ECFC Angio Hoechst NucArea IC50/EC50 |
| --- | --- |
| Cc1cc(C2CCCCC2)n(O)c(=O)c1.NCCO [NCGC00017112-10] | > 10 µM |
